Bounds are passed on as bounds.

In series [1] the test system is HepG2. Put plainly: Anticancer activity against human HepG2 cells assessed as cell viability after 48 hrs by MTT assay. The following applies: HepG2, 48 h. The class given is functional, cell-based. Background: Formazan colour is commonly taken as a measure of viable cells.
A short description of series [2]: Retention time of the compound by chromatography. The format is physicochemical.
Series [3] deals with HepG2. Put plainly: Anticancer activity against human HepG2 cells assessed as cell viability after 24 hrs by MTT assay. The class given is functional, cell-based. The following applies: HepG2, 24 h.
Series [4] has as its target Interleukin-2 (Homo sapiens, UniProt P60568). Put plainly: Binding affinity to IL-2 (unknown origin).
Series [5] has as its target Tumor necrosis factor (Homo sapiens, UniProt P01375). Put plainly: Binding affinity to TNF-alpha (unknown origin).
Series [6] can be described thus: Binding affinity to Bcl-xL (unknown origin). More on the design: species or system Homo sapiens.

Sequence of Tumor necrosis factor (P01375 whole entry): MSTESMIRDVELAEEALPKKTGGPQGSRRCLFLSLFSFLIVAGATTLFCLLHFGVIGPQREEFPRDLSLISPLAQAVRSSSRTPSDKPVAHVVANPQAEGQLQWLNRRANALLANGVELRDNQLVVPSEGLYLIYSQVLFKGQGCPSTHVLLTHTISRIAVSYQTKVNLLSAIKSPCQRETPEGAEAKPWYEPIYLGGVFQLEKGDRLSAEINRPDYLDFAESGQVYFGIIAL
Sequence of Interleukin-2 (P60568 whole entry): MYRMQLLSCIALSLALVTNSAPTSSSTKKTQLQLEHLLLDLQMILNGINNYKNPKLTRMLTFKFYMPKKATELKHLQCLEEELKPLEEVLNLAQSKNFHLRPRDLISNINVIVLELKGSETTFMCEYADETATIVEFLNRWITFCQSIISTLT

As for `CC(CC(=O)C[C@@H](C)[C@H]1CC(=O)[C@@]2(C)C3=C(C(=O)[C@@H](O)[C@]12C)[C@@]1(C)CC[C@H](O)C(C)(C)[C@@H]1C[C@@H]3O)C(=O)O` (stereo partly specified) [GANODERIC ACID G], in series [1], the IC50 (commonly the concentration needed to halve the response being measured) was determined as 85600 nM. The molecule also returned a Retention_time in series [2] of 46.5 min.

Turning to `C[C@@H]1CC[C@@]2(OC1)O[C@H]1C[C@H]3[C@@H]4CC=C5C[C@@H](O[C@@H]6O[C@H](CO)[C@@H](O)[C@H](O)[C@H]6O)CC[C@]5(C)[C@H]4CC[C@]3(C)[C@H]1[C@@H]2C` [DISOGLUSIDE], in series [3], the IC50 was 30300 nM. The Kd (usually the free concentration of one partner at which half of the binding sites on the other are occupied at equilibrium, for simple one-to-one binding) in series [4] turned out to be 0.0289 nM.

In turn, `C[C@@H]1CC[C@@]2(OC1)O[C@H]1C[C@H]3[C@@H]4CC=C5C[C@@H](O[C@@H]6O[C@H](CO)[C@@H](O)[C@H](O[C@@H]7O[C@H](CO)[C@@H](O)[C@H](O)[C@H]7O)[C@H]6O)CC[C@]5(C)[C@H]4CC[C@]3(C)[C@H]1[C@@H]2C` displayed a Retention_time in series [2] of 16.9 min.

Take `C[C@H](CC(=O)C[C@@H](C)[C@H]1C[C@H](O)[C@@]2(C)C3=C(C(=O)C[C@]12C)[C@@]1(C)CC[C@H](O)C(C)(C)[C@@H]1C[C@@H]3O)C(=O)O` [GANODERIC ACID C2]: the IC50 in series [1] is more than 100000 nM. The Retention_time in series [2] was 49.8 min. In series [5], this molecule yielded a Kd of 8.39 nM.

As for `CC(C)(O)[C@@H]1CC[C@](C)([C@H]2[C@@H](O)C[C@@]3(C)[C@@H]4C[C@H](O[C@@H]5O[C@H](CO)[C@@H](O)[C@H](O)[C@H]5O)[C@H]5C(C)(C)[C@@H](O[C@@H]6OC[C@@H](O)[C@H](O)[C@H]6O)CC[C@@]56C[C@@]46CC[C@]23C)O1`, the Kd in series [6] worked out at 0.126 nM. In series [1], the 50% inhibitory concentration (IC50) is more than 100000 nM. The molecule also showed a Retention_time in series [2] of 28.6 min.

Regarding `C/C=C1\[C@H](O[C@@H]2O[C@H](CO)[C@@H](O)[C@H](O)[C@H]2O)OC=C(C(=O)OC)[C@H]1CC(=O)OC[C@H]1O[C@@H](OCCc2ccc(O)cc2)[C@H](O)[C@@H](O)[C@@H]1O`, the dissociation constant (Kd) in series [6] came out at 2.4 nM; in series [4] it was 2.59 nM. Moreover, the IC50 in series [1] is more than 100000 nM. This molecule registered a Retention_time in series [2] of 13.5 min.

`CC(CC(=O)C[C@@H](C)[C@H]1CC(=O)[C@@]2(C)C3=C(C(=O)C[C@]12C)[C@@]1(C)CCC(=O)C(C)(C)[C@@H]1C[C@@H]3O)C(=O)O` (stereo partly specified) [GANODERIC ACID D]: the IC50 in series [1] came out at 22900 nM. The Retention_time in series [2] was 45.7 min. Further, the Kd in series [5] is 18.6 nM.

`O=c1cc(-c2ccc(O)c(O)c2)oc2cc(O)cc(O)c12` [LUTEOLIN]: the IC50 in series [3] stood at 80800 nM. Further, in series [2], the Retention_time came to 38.1 min.

In series [6], `O=C(NS(=O)(=O)c1ccc(NCCSc2ccccc2)c([N+](=O)[O-])c1)c1ccc(-c2ccc(F)cc2)cc1` had a Kd of 810 nM. In other words, the sub-micromolar range.

In the case of `CC(CC(=O)C[C@@H](C)[C@H]1CC(=O)[C@@]2(C)C3=C(C(=O)C[C@]12C)[C@@]1(C)CC[C@H](O)C(C)(C)[C@@H]1C[C@@H]3O)C(=O)O` (stereo partly specified) [GANODERIC ACID B], the IC50 in series [1] stood at 97400 nM. This molecule also came in with a Retention_time in series [2] of 47.5 min. This molecule came in with a Kd in series [5] of 8.81 nM.

On to `O=c1c(-c2ccc(O)cc2)coc2cc(O[C@@H]3O[C@H](CO)[C@@H](O)[C@H](O)[C@H]3O)ccc12` [DAIDZIN], for which the IC50 in series [3] came to 61200 nM. Moreover, the Kd in series [4] came out at 3380 nM. The molecule also registered a Retention_time in series [2] of 8.61 min.

For the molecule `COc1cccc2c1C(=O)c1c(O)c3c(c(O)c1C2=O)C[C@@](O)(C(=O)CO)C[C@@H]3O[C@H]1C[C@H](N)[C@H](O)[C@H](C)O1` [DOXORUBICIN], the IC50 in series [3] is 12500 nM.

For the molecule `COc1ccc(-c2coc3cc(O)ccc3c2=O)cc1` [FORMONONETIN], the results for the Kd in series [6] and in series [4] were 7750 nM and 5470 nM, respectively. Also, in series [3], the IC50 was determined as 60500 nM. In addition, the Retention_time in series [2] was 48.5 min.

As for `O=c1cc(-c2ccc(O)c(O)c2)oc2cc(O[C@@H]3O[C@H](CO)[C@@H](O)[C@H](O)[C@H]3O)cc(O)c12` [GALUTEOLIN], the Kd in series [6] stood at 9.89 nM; in series [4], 20 nM; in series [5], 790 nM. Moreover, in series [3], the IC50 came out at 20800 nM. The same molecule had a Retention_time in series [2] of 31.2 min.

Turning to `COc1ccc(-c2coc3cc(O[C@@H]4O[C@H](CO)[C@@H](O)[C@H](O)[C@H]4O)ccc3c2=O)cc1O`, the Kd in series [6] amounted to 110 nM; in series [4] it was 35.6 nM; in series [5], 1820 nM. For the same molecule, the half-inhibitory concentration (IC50) in series [1] is more than 100000 nM. The same molecule yielded a Retention_time in series [2] of 26.4 min.

For `CC(=O)O[C@@H]1C(=O)C2=C(C(=O)C[C@H]3C(C)(C)[C@@H](O)CC[C@]23C)[C@]2(C)C(=O)C[C@H]([C@H](C)CC(=O)CC(C)C(=O)O)[C@@]12C` (stereo partly specified) [GANODERIC ACID H], the IC50 in series [1] is 70300 nM. Also, the Retention_time in series [2] is reported as 51.1 min. In series [5], this molecule returned a Kd of 2.45 nM.

With `C[C@H](CCC=C(CO)CO)[C@H]1CC[C@@]2(C)C3=CC[C@H]4C(C)(C)C(=O)CC[C@]4(C)C3=CC[C@]12C` [GANODERIOL F], the IC50 in series [1] was 20700 nM. In series [2], this molecule had a Retention_time of 10.3 min. Also, binding in series [5] was put at a Kd of 16.8 nM.

For `CC(=O)O[C@H]1CC[C@]2(C)[C@H]3CC=C4[C@@H]5CC(C)(C)CC[C@]5(C(=O)O)CC[C@@]4(C)[C@]3(C)CC[C@H]2C1(C)C` [ACETYL OLEANOLIC ACID], the IC50 in series [1] was more than 100000 nM. For the same molecule, the Retention_time in series [2] is reported as 39.8 min.

Regarding `COc1ccc(-c2coc3cc(O)ccc3c2=O)cc1O` [CALYCOSIN], the IC50 in series [1] is more than 100000 nM. Also, the Retention_time in series [2] was 34.5 min.

For `C[C@H](CC(=O)C[C@@H](C)[C@H]1C[C@H](O)[C@@]2(C)C3=C(C(=O)C[C@]12C)[C@@]1(C)CCC(=O)C(C)(C)[C@@H]1C[C@@H]3O)C(=O)O` [GANODERIC ACID A], the IC50 in series [1] is 38700 nM. The Retention_time in series [2] stood at 50.4 min. Also, the Kd in series [5] is 8.53 nM.

As for `CC(=O)O[C@@H]1C(=O)C2=C(C(=O)C[C@H]3C(C)(C)C(=O)CC[C@]23C)[C@]2(C)C(=O)C[C@H]([C@H](C)CC(=O)CC(C)C(=O)O)[C@@]12C` (stereo partly specified) [GANODERIC ACID F], the IC50 in series [3] was 19600 nM. The molecule also registered a Retention_time in series [2] of 54.4 min. The dissociation constant (Kd) in series [5] came to 2.69 nM.

As to `COc1ccc(-c2coc3cc(O[C@@H]4O[C@H](CO)[C@@H](O)[C@H](O)[C@H]4O)ccc3c2=O)cc1` [ONONIN], the results for the Kd in series [6] and in series [4] were 170 nM and 120 nM, respectively. Also, the IC50 in series [1] amounted to 40800 nM. Moreover, the Retention_time in series [2] worked out at 39.3 min.

Regarding `O=c1cc(-c2ccc(O)cc2)oc2cc(O[C@@H]3O[C@H](CO)[C@@H](O)[C@H](O)[C@H]3O)cc(O)c12` [APIGETRIN], the Kd in series [6] was 76.2 nM; in series [5], 200 nM. Further, the IC50 in series [3] stood at 90600 nM. In series [2], this molecule had a Retention_time of 28.6 min.

The values are drawn from ChEMBL document CHEMBL3286146, “Prediction of anti-tumor chemical probes of a traditional Chinese medicine formula by HPLC fingerprinting combined with molecular docking” (Eur J Med Chem, 2014).
